Experimental data published in patent US7405220B2, “Pyrazolopyrimidines” (Hoffmann-La Roche Inc., priority 2004, dated 2008).

Tests used:
[1] = system: HCT116, a colorectal carcinoma cell line; assay: Tetrazolium dye (MTT) proliferation assay; type: cell-based; settings: Homo sapiens, HCT-116; HCT116 cells
Description: Proliferation was evaluated by the tetrazolium dye assay according to the procedure of Denizot and Lang (Denizot, F. and Lang, R. J Immunol Methods 1986, 89, 271-277). The cell line used was HCT116, a colorectal carcinoma cell line obtained from the American Type Cell Culture Collection (ATCC; Rockville, Md.). The cells were grown in McCoy's 5A medium supplemented with 10% FCS and L-glutamine.
Cells were plated at the appropriate seeding density to give logarithmic growth over the course of the assay in a 96-well tissue culture plate. Plates were incubated overnight at 37° C. in a humidified incubator with 5% CO2. The next day, test compounds were serially diluted to four times the final concentration in the appropriate medium containing 1.2% DMSO. One-fourth final volume of each dilution was added in duplicate to the plates containing cells. The same volume of 1.2% DMSO in medium was added to a row of “control wells” such that the final concentration of DMSO in each well was 0.3%. Wells to which no cells were added served as the “blank.” Wells to which no inhibitor was added served as “no inhibitor control.” The plates were) returned to the incubator, and at set time points (determined by their growth curves) plates were analyzed as described below.
3-(4,5-dimethylthiazole-2-yl)-2,5-diphenyl-2H-tetrazolium bromide (thiazolyl blue; MTT; Sigma) was added to each well to yield a final concentration of 1 mg/ml. Plates were returned to the incubator for 2.5-3 hours at 37° C. The MTT-containing medium was removed and the resulting formazan metabolite was solubilized in 100% ethanol with shaking for 15 minutes at room temperature. Absorbance readings were taken in a microtiter plate reader (Dynatech and Molecular Devices plate readers were used interchangeably) at a wavelength of 570 nm with a 650 nm reference. Percent inhibition (% INH) is calculated by subtracting the absorbance of the blank well from all wells, then subtracting the ratio of the average absorbance of each test duplicate (SAVE) by the average of the controls (CAVE) from 1.00. The final number is then multiplied by 100 (% INH=(1.00−SAVE/CAVE)×100). The concentration at which 50% inhibition of cell proliferation is obtained (the IC50) is determined from the linear regression of a plot of the logarithm of the concentration versus percent inhibition.

human cyclin B-Cdk1 = human cyclin B-Cdk1 (Homo sapiens, UniProt P06493); assay: Cdk1 FlashPlate kinase assay (Rb phosphorylation); type: biochemical; settings: recombinant cyclin B-Cdk1, Rb substrate, 1 μM ATP
Sequence of human cyclin B-Cdk1 (P06493 whole entry): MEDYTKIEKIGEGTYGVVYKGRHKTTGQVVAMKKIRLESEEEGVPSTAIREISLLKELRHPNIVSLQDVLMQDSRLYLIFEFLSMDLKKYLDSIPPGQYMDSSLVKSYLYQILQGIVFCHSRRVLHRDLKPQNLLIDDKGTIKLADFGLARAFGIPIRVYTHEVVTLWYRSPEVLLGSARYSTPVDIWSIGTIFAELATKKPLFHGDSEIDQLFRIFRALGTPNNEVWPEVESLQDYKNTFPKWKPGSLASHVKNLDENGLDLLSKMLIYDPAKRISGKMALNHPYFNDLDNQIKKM
Sequence of human cyclin B-Cdk1 (P14635 whole entry partner): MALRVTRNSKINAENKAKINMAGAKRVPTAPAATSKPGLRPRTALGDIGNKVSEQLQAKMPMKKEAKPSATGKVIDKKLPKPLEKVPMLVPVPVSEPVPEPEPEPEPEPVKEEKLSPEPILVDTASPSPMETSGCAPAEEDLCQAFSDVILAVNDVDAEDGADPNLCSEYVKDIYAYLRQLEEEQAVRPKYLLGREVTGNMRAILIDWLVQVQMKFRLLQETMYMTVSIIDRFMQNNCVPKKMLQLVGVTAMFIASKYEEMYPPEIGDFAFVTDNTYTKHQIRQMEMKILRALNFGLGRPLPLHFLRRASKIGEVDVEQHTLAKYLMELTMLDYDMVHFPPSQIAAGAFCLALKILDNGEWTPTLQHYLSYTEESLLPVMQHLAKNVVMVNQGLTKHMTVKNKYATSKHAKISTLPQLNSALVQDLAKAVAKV
Description: (§1) To determine inhibition of Cdk4, Cdk2 and Cdk1 activity, kinase assays were conducted using FlashPlate™ assays (NEN™-Life Science Products). FlashPlate assays were performed using recombinant human cyclin B-Cdk1, human cyclin E-Cdk2 or human cyclin D1-Cdk4 complexes. GST-cyclinE (GST-cycE), Cdk2, GST-cyclinB (GST-cycB), Cdk1, GST-Cdk4 and cyclin D1 (cycD1) cDNA clones in baculovirus vectors were provided by Dr. W. Harper at the Baylor College of Medicine, Houston, Tex. Proteins were co-expressed in High Five™ insect cells and the complex was purified on glutathione Sepharose resin (Pharmacia, Piscataway, N.J.) as previously described (Harper, J. W. et al. Cell 1993, 75, 805-816). A 6×-Histidine tagged truncated form of retinoblastoma (Rb) protein (amino acid 386-928) was used as the substrate for the cycD1-Cdk4, cycB-Cdk1 and the cycE-Cdk2 assays (the expression plasmid was provided by Dr. Veronica Sullivan, Department of Molecular Virology, Roche Research Centre, Welwyn Garden City, United Kingdom). The Rb protein is a natural substrate for phosphorylation by Cdk4, Cdk2 and Cdk1 (see Herwig and Strauss Eur. J. Biochem. Vol. 246 (1997) pp. 581-601 and the references cited therein).
(§2) The expression of the 62 Kd protein was under the control of an IPTG inducible promoter in an M15 E. coli strain. Cells were lysed by sonication and purification was carried out by binding lysates at pH 8.0 to a Ni-chelated agarose column pretreated with 1 mM imidazole. The resin was then washed several times with incrementally decreasing pH buffers to pH 6.0, and eluted with 500 mM imidazole. Eluted protein was dialysed against 20 mM HEPES pH 7.5, 30% glycerol, 200 mM NaCl, and 1 mM DTT. Purified Rb fusion protein stocks were quantitated for protein concentration, aliquoted, and stored at −70° C.
(§3) For all three kinase assays reported herein, 96-well FlashPlates were coated with Rb protein at 10 μg/ml, using 100 μl per well. Plates were incubated at 4° C. overnight or at room temperature for 3 hours on a shaker. To control for nonspecific phosphorylation, one row of wells was coated with 100 μl/well coating buffer (20 mM HEPES, 0.2 M NaCl). Plates were then washed twice with wash buffer (0.01% Tween 20 in phosphate-buffered saline). Compounds to be tested (“test compounds”) were added to the wells at 5× final concentration. Reactions were initiated by immediate addition of 40 μl reaction mix (25 mM HEPES, 20 mM MgCl2, 0.002% Tween 20, 2 mM DTT, 1 μM ATP, 4 nM 33P-ATP) and a sufficient amount of enzyme to give counts that were at least 10-fold above background. Plates were incubated at room temperature on a shaker for 30 minutes. Plates were washed four times with the wash buffer, sealed, and counted on the TopCount scintillation counter (Packard Instrument Co., Downers Grove, Ill.]. The percent inhibition of Rb phosphorylation, which is a measure of the inhibition of Cdk activity, was determined according to the following formula: […]
(§4) where “test compound” refers to the average counts per minute of the test duplicates, “nonspecific” refers to the average counts per minute when no CyclinD/Cdk4, etc., was added, and “total” refers to the average counts per minute when no compound was added. The IC50 value is the concentration of test compound that reduces by 50% the protein-kinase induced incorporation of the radiolabel under the test conditions described.

human cyclin D1-Cdk4 = human cyclin D1-Cdk4 (Homo sapiens, UniProt P11802); assay: Cdk4 FlashPlate kinase assay (Rb phosphorylation); type: biochemical; settings: recombinant cyclin D1-Cdk4, Rb substrate, 1 μM ATP
Sequence of human cyclin D1-Cdk4 (P11802 whole entry): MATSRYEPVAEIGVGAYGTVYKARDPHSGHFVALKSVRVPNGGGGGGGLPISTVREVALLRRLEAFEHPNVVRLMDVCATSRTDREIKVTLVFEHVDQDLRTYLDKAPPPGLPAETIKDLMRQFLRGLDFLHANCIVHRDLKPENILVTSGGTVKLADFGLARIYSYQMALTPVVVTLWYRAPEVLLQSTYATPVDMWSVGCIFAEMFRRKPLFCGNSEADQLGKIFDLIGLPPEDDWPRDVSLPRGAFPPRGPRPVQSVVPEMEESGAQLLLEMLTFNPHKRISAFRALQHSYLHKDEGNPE
Sequence of human cyclin D1-Cdk4 (P24385 whole entry partner): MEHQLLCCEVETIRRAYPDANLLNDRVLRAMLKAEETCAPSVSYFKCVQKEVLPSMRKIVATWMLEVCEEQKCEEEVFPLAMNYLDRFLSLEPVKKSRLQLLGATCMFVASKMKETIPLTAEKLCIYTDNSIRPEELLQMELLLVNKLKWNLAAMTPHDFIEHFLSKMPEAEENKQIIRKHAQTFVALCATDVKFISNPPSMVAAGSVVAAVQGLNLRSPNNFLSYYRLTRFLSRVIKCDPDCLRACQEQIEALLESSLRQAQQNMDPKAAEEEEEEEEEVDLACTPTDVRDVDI
Description: as §1, §2, §3, §4

human cyclin E-Cdk2 = human cyclin E-Cdk2 (Homo sapiens, UniProt P24941); assay: Cdk2 FlashPlate kinase assay (Rb phosphorylation); type: biochemical; settings: recombinant cyclin E-Cdk2, Rb substrate, 1 μM ATP
Description: as §1, §2, §3, §4

IC50 [1] [nM]	IC50 (human cyclin B-Cdk1) [nM]	IC50 (human cyclin D1-Cdk4) [nM]	IC50 (human cyclin E-Cdk2) [nM]	SMILES
			278	COc1ccc(Nc2ncc3c(-c4ccccc4OC)n[nH]c3n2)cc1 [Example 39, (4-Methoxy-phenyl)-[3-(2-methoxy-phenyl)-1H-pyrazolo[3,4-d]pyrimidin-6-y]-amine; compound with trifluoro-acetic acid]
1700		4	275	COc1ccc(F)cc1-c1n[nH]c2nc(N[C@H]3CCN(S(C)(=O)=O)C[C@@H]3O)ncc12 [Example 27]
30000	1140	18.5	230	CS(=O)(=O)N1CCC(Nc2ncc3c(-c4cccc(F)c4)n[nH]c3n2)CC1 [Example 31, [3-(3-Fluoro-phenyl)-1H-pyrazolo[3,4-d]pyrimidin-6-yl]-(1-methanesulfonyl-piperidin-4-yl)-amine]
32000	867		278	CS(=O)(=O)N1CCC(Nc2ncc3c(-c4c(F)cccc4F)n[nH]c3n2)CC1 [Example 29, [3-(2,6-Difluoro-phenyl)-1H-pyrazolo[3,4-d]pyrimidin-6-yl]-(1-methanesulfonyl-piperidin-4-yl)-amine]
			278	CCOC(=O)N1CCC(Nc2ncc3c(-c4cccc(F)c4)n[nH]c3n2)CC1 [Example 43, 4-[3-(3-Fluoro-phenyl)-1H-pyrazolo[3,4-d]pyrimidin-6-ylamino]-piperidine-1-carboxylic acid ethyl ester; compound with trifluoro-acetic acid]
			278	COc1ccccc1-c1n[nH]c2nc(Nc3ccccc3)ncc12 [Example 38, [3-(2-Methoxy-phenyl)-1H-pyrazolo[3,4-d]pyrimidin-6-yl]-phenyl-amine]
			278	COc1ccccc1-c1n[nH]c2nc(NCCCN(C)C)ncc12 [Example 36, N′-[3-(2-Methoxy-phenyl)-1H-pyrazolo[3,4-d]pyrimidin-6-yl]-N,N-dimethyl-propane-1,3-diamine]
	1460		278	Cc1n[nH]c2nc(NC3CCN(C)CC3)ncc12 [Example 23]
		2500	2500	Fc1ccc(Nc2ncc3c(-c4c(F)cccc4F)n[nH]c3n2)cc1 [Example 33, [3-(2,6-Difluoro-phenyl)-1H-pyrazolo[3,4-d]pyrimidin-6-yl]-(4-fluoro-phenyl)-amine]
			24	Cc1n[nH]c2nc(Nc3ccc(S(N)(=O)=O)cc3)ncc12 [Example 41, 4-(3-Methyl-1H-pyrazolo[3,4-d]pyrimidin-6-ylamino)-benzenesulfonamide; compound with trifluoro-acetic acid]
9160	231		33	CS(=O)(=O)N1CCC(Nc2ncc3cn[nH]c3n2)CC1 [Example 19]
4500		41	244	COc1ccc(F)c(F)c1-c1n[nH]c2nc(NC3CCN(S(C)(=O)=O)CC3)ncc12 [Example 16, [3-(2,3-Difluoro-6-methoxy-phenyl)-1H-pyrazolo[3,4-d]pyrimidin-6-yl]-(1-methanesulfonyl-piperidin-4-yl)-amine]
		42	77	COc1ccc(F)cc1-c1n[nH]c2nc(NC3CCN(S(C)(=O)=O)CC3)ncc12 [Example 25, [3-(5-Fluoro-2-methoxy-phenyl)-1H-pyrazolo[3,4-d]pyrimidin-6-yl]-(1-methanesulfonyl-piperidin-4-yl)-amine]
3930	262	128	179	CS(=O)(=O)N1CCC(Nc2ncc3c(-c4ccccc4)n[nH]c3n2)CC1 [Example 30, (1-Methanesulfonyl-piperidin-4-yl)-(3-phenyl-1H-pyrazolo[3,4-d]pyrimidin-6-yl)-amine]
			278	Cc1n[nH]c2nc(NCCO)ncc12 [Example 42, 2-(3-Methyl-1H-pyrazolo[3,4-d]pyrimidin-6-ylamino)-ethanol; compound with trifluoro-acetic acid]
		344	594	COc1ccccc1-c1n[nH]c2nc(NCCO)ncc12 [Example 34, 2-[3-(2-Methoxy-phenyl)-1H-pyrazolo[3,4-d]pyrimidin-6-ylamino]-ethanol]
		1120	1850	COc1ccccc1-c1n[nH]c2nc(NCCCCCN)ncc12 [Example 35, [3-(2-Methoxy-phenyl)-1H-pyrazolo[3,4-d]pyrimidin-6-yl]-pentane-1,5-diamine; compound with trifluoro-acetic acid]
		36	9	COc1ccccc1-c1n[nH]c2nc(Nc3ccc(S(N)(=O)=O)cc3)ncc12 [Example 32, 4-[3-(2-Methoxy-phenyl)-1H-pyrazolo[3,4-d]pyrimidin-6-ylamino]-benzenesulfonamide; compound with trifluoro-acetic acid]
			278	COc1ccccc1Nc1ncc2c(-c3c(F)cccc3F)n[nH]c2n1 [Example 40, [3-(2,6-Difluoro-phenyl)-1H-pyrazolo[3,4-d]pyrimidin-6-yl]-(2-methoxy-phenyl)-amine; compound with trifluoro-acetic acid]
			278	COc1ccccc1-c1n[nH]c2nc(NCCCCCN(C)C)ncc12 [Example 37, N-[3-(2-Methoxy-phenyl)-1H-pyrazolo[3,4-d]pyrimidin-6-yl]-N,N-dimethyl-pentane-1,5-diamine; compound with trifluoro-acetic acid]

SMILES	IC50 [1] [nM]	IC50 (human cyclin B-Cdk1) [nM]	IC50 (human cyclin D1-Cdk4) [nM]	IC50 (human cyclin E-Cdk2) [nM]
COc1ccccc1-c1n[nH]c2nc(NC3CCN(S(C)(=O)=O)CC3)ncc12 [Example 28]	1200	107	14	18
